Assay results taken from ChEMBL document CHEMBL1201862, “PubChem BioAssay data set” (2004).
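Method: 48-hour compound exposure of cells in 96-well plates, five concentrations, linear interpolation of endpoints. Here, GI50 denotes the concentration required for 50% inhibition of growth.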 Activity calls are given as the source filed them. Cut-off read from the data, not from the text of the source: active = GI50 up to about 1.1 µM and inactive = higher.

Legend:
Assay in all cases: inhibition of tumour cell growth, NCI panel, 48 h
NCI-H23 = test system: NCI-H23
Malme-3M = test system: Malme-3M
M14 = test system: M14
HOP-92 = test system: HOP-92
IGROV-1 = test system: IGROV-1
HT-29 = test system: HT-29
SNB-75 = test system: SNB-75
HL-60 = test system: HL-60
SF-295 = test system: SF-295
COLO 205 = test system: COLO 205
MOLT-4 = test system: MOLT-4
MDA-MB-435 = test system: MDA-MB-435
SK-MEL-5 = test system: SK-MEL-5
OVCAR-3 = test system: OVCAR-3
SK-MEL-28 = test system: SK-MEL-28
ACHN = test system: ACHN
SR = test system: SR
KM12 = test system: KM12
HCT-116 = test system: HCT-116
BT-549 = test system: BT-549

| SMILES | GI50 (NCI-H23) | GI50 (Malme-3M) | GI50 (M14) | GI50 (HOP-92) | GI50 (IGROV-1) | GI50 (HT-29) | GI50 (SNB-75) | GI50 (HL-60) | GI50 (SF-295) | GI50 (COLO 205) | GI50 (MOLT-4) | GI50 (MDA-MB-435) | GI50 (SK-MEL-5) | GI50 (OVCAR-3) | GI50 (SK-MEL-28) | GI50 (ACHN) | GI50 (SR) | GI50 (KM12) | GI50 (HCT-116) | GI50 (BT-549) |
| --- | --- | --- | --- | --- | --- | --- | --- | --- | --- | --- | --- | --- | --- | --- | --- | --- | --- | --- | --- | --- |
| O=C1Nc2ccc(Br)cc2/C1=N/c1ccc2c(c1)OCO2 | 37.2 µM (inactive) | 18.7 µM (inactive) | 20.5 µM (inactive) | 50.1 µM (inactive) | 27.4 µM (inactive) | 17.4 µM (inactive) | 31.6 µM (inactive) | 13.2 µM (inactive) | 24.8 µM (inactive) | 16.9 µM (inactive) | 16.6 µM (inactive) | 9.35 µM (inactive) | 16 µM (inactive) | 22.1 µM (inactive) | 39 µM (inactive) | 23.7 µM (inactive) | 15.1 µM (inactive) | 17.6 µM (inactive) | 17.4 µM (inactive) | 19.8 µM (inactive) |
| COC(=O)[C@H](Cc1ccccc1)NC(=O)c1ccc(CNC(=O)/C=C/c2csc(-c3ccccc3)n2)cc1 | 13.8 µM (inactive) | 3.24 µM (inactive) | 1.84 µM (inactive) | 3.88 µM (inactive) | 3.46 µM (inactive) | 7.38 µM (inactive) | 11 µM (inactive) | 0.275 µM (active) | 7.28 µM (inactive) | 7.13 µM (inactive) | 1.75 µM (inactive) | 2.83 µM (inactive) | 4.22 µM (inactive) | 5.33 µM (inactive) | 3.18 µM (inactive) | 8.28 µM (inactive) | 1.11 µM (active) | 7.87 µM (inactive) | 5.04 µM (inactive) | 29.9 µM (inactive) |
| COC(=O)C(Cc1ccc2c(c1)CCCC2)Cc1cc2c(cc1C(O)OC)CCC2 (stereo not given) | 73.5 µM (inactive) | 38.1 µM (inactive) | 93.3 µM (inactive) | 18.5 µM (inactive) | > 100 µM (inactive) | 27.7 µM (inactive) | > 100 µM (inactive) | 11.8 µM (inactive) | 61.5 µM (inactive) | 37.7 µM (inactive) | 58.9 µM (inactive) | 38.2 µM (inactive) | 33.4 µM (inactive) | 89.7 µM (inactive) | 55 µM (inactive) | 67.1 µM (inactive) | 38.5 µM (inactive) | 44.7 µM (inactive) | 39.6 µM (inactive) | > 100 µM (inactive) |
| COC(=O)CCC1=CCC2(SC)C(=O)Nc3cccc1c32 (stereo not given) | > 100 µM (inactive) | > 100 µM (inactive) | > 100 µM (inactive) | > 100 µM (inactive) | > 100 µM (inactive) | > 100 µM (inactive) | > 100 µM (inactive) | > 100 µM (inactive) | > 100 µM (inactive) | > 100 µM (inactive) | > 100 µM (inactive) | > 100 µM (inactive) | > 100 µM (inactive) | > 100 µM (inactive) | > 100 µM (inactive) | > 100 µM (inactive) | > 100 µM (inactive) | > 100 µM (inactive) | > 100 µM (inactive) | > 100 µM (inactive) |
| COc1cccc(C2c3cc4c(cc3OC(C)(N3CCCC3)C2C)OCO4)c1OC (stereo not given) | 15 µM (inactive) | 18.8 µM (inactive) | 14.6 µM (inactive) | 14.3 µM (inactive) | 5.82 µM (inactive) | 5.14 µM (inactive) | 8.89 µM (inactive) | 4.91 µM (inactive) | 9.1 µM (inactive) | 7.67 µM (inactive) | 5.11 µM (inactive) | 14.8 µM (inactive) | 13.4 µM (inactive) | 5.07 µM (inactive) | 25.9 µM (inactive) | 3.83 µM (inactive) | 4.31 µM (inactive) | 6.78 µM (inactive) | 4.3 µM (inactive) | 6.67 µM (inactive) |
| CCOC(=O)c1nc2cc(C(F)(F)F)ccc2nc1Nc1ccc(OC)c(OC)c1 | > 100 µM (inactive) | > 100 µM (inactive) | > 100 µM (inactive) | > 100 µM (inactive) | > 100 µM (inactive) | > 100 µM (inactive) | 50.9 µM (inactive) | > 100 µM (inactive) | > 100 µM (inactive) | > 100 µM (inactive) | > 100 µM (inactive) | > 100 µM (inactive) | > 100 µM (inactive) | > 100 µM (inactive) | > 100 µM (inactive) | > 100 µM (inactive) | > 100 µM (inactive) | > 100 µM (inactive) | > 100 µM (inactive) | > 100 µM (inactive) |
| CCOC(=O)c1cc2cc([N+](=O)[O-])ccc2oc1=O | > 100 µM (inactive) | > 100 µM (inactive) | > 100 µM (inactive) | > 100 µM (inactive) | > 100 µM (inactive) | > 100 µM (inactive) | > 100 µM (inactive) | 99.5 µM (inactive) | > 100 µM (inactive) | > 100 µM (inactive) | > 100 µM (inactive) | > 100 µM (inactive) | > 100 µM (inactive) | > 100 µM (inactive) | > 100 µM (inactive) | > 100 µM (inactive) | > 100 µM (inactive) | > 100 µM (inactive) | 93.3 µM (inactive) | > 100 µM (inactive) |
